Experimental data taken from US11680056B2, “MK2 inhibitors and uses thereof” (Xinthera, Inc., priority 2021, dated 2023).
Read-outs that look alike come from different tables or passages of the source.

Tests used:
[1] = target: p38a/PRAK (Homo sapiens (Human), UniProt Q16539); experiment: p38a/PRAK biochemical assay: activation of PRAK by p38, FITC-HSP27 peptide phosphorylation (IMAP FP); conditions: 10-point 1:3 dilution, top dose 300 μM, 60 pM active p38a, 1 nM inactive PRAK, 10 μM ATP, 2 h incubation; for IC50: read-out: p38a/PRAK Enzyme pIC50 (converted)
Chain of p38a/PRAK (Q16539 whole entry): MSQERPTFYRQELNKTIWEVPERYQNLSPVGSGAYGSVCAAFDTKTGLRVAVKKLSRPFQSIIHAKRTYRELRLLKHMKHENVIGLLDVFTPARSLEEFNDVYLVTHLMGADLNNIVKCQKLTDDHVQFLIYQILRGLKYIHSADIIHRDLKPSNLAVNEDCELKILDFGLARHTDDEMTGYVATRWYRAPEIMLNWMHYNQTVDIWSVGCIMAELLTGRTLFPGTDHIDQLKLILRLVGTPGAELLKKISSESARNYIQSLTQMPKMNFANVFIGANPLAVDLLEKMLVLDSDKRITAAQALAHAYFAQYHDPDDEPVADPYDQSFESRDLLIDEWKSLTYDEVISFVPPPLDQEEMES
In short: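 GST-tagged MK2 (F46–H400) and PRAK (M1–Q471), expressed in E. coli, activated by p38 and phosphorylate FITC-HSP27 peptide over 2 h with compound; readout by IMAP fluorescence polarisation (ex 485/em 528 nm). Ten-point 1:3 dilutions, top dose 1 μM for MK2 and 300 μM for PRAK. IC50 after vehicle normalisation; selectivity = IC50(PRAK)/IC50(MK2).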

[2] = target: p38a/MK2 (Homo sapiens (Human), UniProt P49137+Q16539); experiment: p38a/MK2 biochemical assay: activation of MK2 by p38, FITC-HSP27 peptide phosphorylation (IMAP FP); conditions: 10-point 1:3 dilution, 60 pM active p38a, 1 nM inactive MK2, 10 μM ATP, 2 h incubation
Chain of p38a/MK2 (P49137 46-400): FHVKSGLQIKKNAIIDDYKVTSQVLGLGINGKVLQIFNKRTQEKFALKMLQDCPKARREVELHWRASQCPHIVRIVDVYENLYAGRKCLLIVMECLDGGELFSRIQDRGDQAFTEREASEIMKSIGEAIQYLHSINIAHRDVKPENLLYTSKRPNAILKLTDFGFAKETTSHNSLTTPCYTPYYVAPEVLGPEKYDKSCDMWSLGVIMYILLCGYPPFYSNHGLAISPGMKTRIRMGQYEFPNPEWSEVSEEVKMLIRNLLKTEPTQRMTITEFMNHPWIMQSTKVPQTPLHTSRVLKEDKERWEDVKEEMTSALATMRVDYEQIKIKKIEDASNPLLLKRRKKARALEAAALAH
Chain of p38a/MK2 (Q16539 whole entry): as the sequence (Q16539 whole entry) above

[3] = top dose 10 μM, read-out: p38a/MK2 (10 μM) Enzyme pIC50 (converted)
[4] = top dose 1 μM, read-out: p38a/MK2 (1 μM) Enzyme pIC50 (converted)

Row | Structure (SMILES) | IC50 [1] | IC50 [2, 4] | further results
1 | Cc1cnc(-c2cccc([C@H](O)CO)n2)cc1-n1c(C)cc(OCc2ncc(F)cc2F)c(Cl)c1=O (single isomer, unassigned) [Example 34C, rel-3-chloro-4-[(3,5-difluoropyridin-2-yl)methoxy]-2′-[6-(1,2-dihydroxyethyl)pyridin-2-yl]-5′,6-dimethyl-[1,4′-bipyridin]-2-one] | > 316 µM |  | IC50 [2, 3]: 2 µM
2 | [2H]C([2H])(Oc1cc(C)n(-c2c(C)cnc(-c3ccnc(C(O)(C([2H])([2H])[2H])C([2H])([2H])[2H])n3)c2F)c(=O)c1Cl)c1ncc(F)cc1F (single isomer, unassigned) [Example 67B, rel-3-chloro-4-((3,5-difluoropyridin-2-yl)methoxy-d2)-3′-fluoro-2′-(2-(2-hydroxypropan-2-yl-1,1,1,3,3,3-d6)pyrimidin-4-yl)-5′,6-dimethyl-2H-[1,4′-bipyridin]-2-one] | 31.6 µM | 0.0794 µM | 
3 | Cc1cnc(-c2ccnc(C(C)(C)O)c2)cc1-n1c(C)cc(OCc2ncc(F)cc2F)c(Cl)c1=O (single isomer, unassigned) [Example 38A, rel-3-chloro-4-[(3,5-difluoropyridin-2-yl)methoxy]-2′-[2-(2-hydroxypropan-2-yl)pyridin-4-yl]-5′,6-dimethyl-[1,4′-bipyridin]-2-one] | 31.6 µM | 0.1 µM | 
4 | Cc1cnc(-c2cccc([C@@](C)(O)CO)n2)cc1-n1c(C)cc(OCc2ncc(F)cc2F)c(Cl)c1=O (stereo in doubt) [Example 36A, rel-3-chloro-4-[(3,5-difluoropyridin-2-yl)methoxy]-2′-[6-(1,2-dihydroxypropan-2-yl)pyridin-2-yl]-5′,6-dimethyl-[1,4′-bipyridin]-2-one] |  |  | p38a/PRAK Enzyme pIC50 [1]: 5.3; p38a/MK2 (1 μM) Enzyme pIC50 ([2]; top dose 1 μM): 8.3
5 | Cc1cnc(-c2ccc3c(n2)C(C)(O)CC3)cc1-n1c(C)cc(OCc2ncc(F)cc2F)c(Cl)c1=O (single isomer, unassigned) [Example 32B] | > 316 µM |  | IC50 [2, 3]: 1 µM
6 | Cc1cnc(-c2cccc([C@](C)(O)CO)n2)cc1-n1c(C)cc(OCc2ncc(F)cc2F)c(Cl)c1=O (atropisomer, axis not shown) [Example 14, 3-chloro-4-[(3,5-difluoropyridin-2-yl)methoxy]-2′-[6-(1,2-dihydroxypropan-2-yl)pyridin-2-yl]-5′,6-dimethyl-[1,4′-bipyridin]-2-one] | 20 µM |  | p38a/MK2 (10 μM) Enzyme pIC50 ([2]; top dose 10 μM): 7.7
7 | Cc1cnc(-c2cccc(C(C)(C)O)[n+]2[O-])c(F)c1-n1c(C)cc(OCc2ncc(F)cc2F)c(Cl)c1=O (single isomer, unassigned) [Example 62A, rel-3-chloro-4-((3,5-difluoropyridin-2-yl)methoxy)-3′-fluoro-6″-(2-hydroxypropan-2-yl)-5′,6-dimethyl-2-oxo-2H-[1,4′:2′,2″-terpyridine] 1″-oxide] | 0.794 µM | 0.00158 µM | 
8 | [2H]C([2H])(Oc1cc(C)n(-c2cc(-c3ccnc(C(C)(C)O)c3F)ncc2C)c(=O)c1Cl)c1ncc(F)cc1F (single isomer, unassigned) [Example 64B, rel-3-chloro-4-[(3,5-difluoropyridin-2-yl)(2H2)methoxy]-1-[3′-fluoro-2′-(2-hydroxypropan-2-yl)-5-methyl-[2,4′-bipyridin]-4-yl]-6-methylpyridin-2-one] | > 316 µM | > 0.1 µM | 
9 | Cc1cnc(-c2cccc([C@H](O)CO)n2)cc1-n1c(C)cc(OCc2ncc(F)cc2F)c(Cl)c1=O (atropisomer, axis not shown) [Example 16, 3-chloro-4-[(3,5-difluoropyridin-2-yl)methoxy]-2′-[6-(1,2-dihydroxyethyl)pyridin-2-yl]-5′,6-dimethyl-[1,4′-bipyridin]-2-one] | 15.8 µM |  | p38a/MK2 (10 μM) Enzyme pIC50 ([2]; top dose 10 μM): 7.4
10 | CCc1cnc(-c2ccnc(C(C)(C)O)n2)cc1-n1c(C)cc(OCc2ncc(F)cc2F)c(Cl)c1=O (single isomer, unassigned) [Example 29B, rel-3-chloro-4-((3,5-difluoropyridin-2-yl)methoxy)-5′-ethyl-2′-(2-(2-hydroxypropan-2-yl)pyrimidin-4-yl)-6-methyl-2H-[1,4′-bipyridin]-2-one] | > 316 µM |  | IC50 [2, 3]: > 10 µM
11 | Cc1cnc(-c2ccnc(N(C)CCO)n2)cc1-n1c(C)cc(OCc2ncc(F)cc2F)c(Cl)c1=O (single isomer, unassigned) [Example 43A, rel-3-chloro-4-[(3,5-difluoropyridin-2-yl)methoxy]-2′-{2-[(2-hydroxyethyl)(methyl)amino]pyrimidin-4-yl}-5′,6-dimethyl-[1,4′-bipyridin]-2-one] | 2.51 µM | 0.0126 µM | 
12 | Cc1ncc(-c2ccnc(C(C)(C)O)n2)cc1-n1c(C)cc(OCc2ncc(F)cc2F)c(Cl)c1=O (single isomer, unassigned) [Example 45B, rel-3-chloro-4-[(3,5-difluoropyridin-2-yl)methoxy]-5′-[2-(2-hydroxypropan-2-yl)pyrimidin-4-yl]-2′,6-dimethyl-[1,3′-bipyridin]-2-one] | 39.8 µM | 0.501 µM | 
13 | Cc1cnc(-c2nc(C(C)(C)O)n(C)n2)cc1-n1c(C)cc(OCc2ncc(F)cc2F)c(Cl)c1=O (single isomer, unassigned) [Example 42B, rel-3-chloro-4-[(3,5-difluoropyridin-2-yl)methoxy]-2′-[5-(2-hydroxypropan-2-yl)-1-methyl-1,2,4-triazol-3-yl]-5′,6-dimethyl-[1,4′-bipyridin]-2-one] | > 316 µM | > 1 µM | 
14 | Cc1cnc(-c2ccnc([C@](C)(O)C3CC3)n2)cc1-n1c(C)cc(OCc2ncc(F)cc2F)c(Cl)c1=O (single isomer, unassigned) [Example 6B, rel-3-chloro-2′-[2-(1-cyclopropyl-1-hydroxyethyl)pyrimidin-4-yl]-4-[(3,5-difluoropyridin-2-yl)methoxy]-5′,6-dimethyl-[1,4′-bipyridin]-2-one] | 10 µM | 0.00501 µM | 
15 | Cc1cnc(-c2nc(C(C)(C)O)cs2)cc1-n1c(C)cc(OCc2ncc(F)cc2F)cc1=O (atropisomer, axis not shown) [Example 8, 4-[(3,5-difluoropyridin-2-yl)methoxy]-2′-[4-(2-hydroxypropan-2-yl)-1,3-thiazol-2-yl]-5′,6-dimethyl-[1,4′-bipyridin]-2-one] | > 316 µM |  | p38a/MK2 (10 μM) Enzyme pIC50 ([2]; top dose 10 μM): <5.0
16 | [2H]C([2H])(Oc1cc(C)n(-c2c(C)cnc(-c3ccnc(C(C)(C)CO)n3)c2F)c(=O)c1Cl)c1ncc(F)cc1F (single isomer, unassigned) [Example 59A, rel-3-chloro-4-((3,5-difluoropyridin-2-yl)methoxy-d2)-3′-fluoro-2′-(2-(1-hydroxy-2-methylpropan-2-yl)pyrimidin-4-yl)-5′,6-dimethyl-2H-[1,4′-bipyridin]-2-one] | > 316 µM | > 1 µM | 
17 | Cc1cnc(-c2ccnc(C(C)(C)O)n2)cc1-c1c(C)cc(OCc2ncc(F)cc2F)c(Cl)c1F [Example 1, 2-[4-(4-{3-chloro-4-[(3,5-difluoropyridin-2-yl)methoxy]-2-fluoro-6-methylphenyl}-5-methylpyridin-2-yl)pyrimidin-2-yl]propan-2-ol] | > 316 µM |  | p38a/MK2 (10 μM) Enzyme pIC50 ([2]; top dose 10 μM): 5.2
18 | Cc1cc(OCc2ncc(F)cc2F)c(Cl)c(=O)n1-c1cc(-c2ccnc(C(C)(C)O)n2)ncc1C1CC1 (single isomer, unassigned) [Example 40A, rel-3-chloro-5′-cyclopropyl-4-[(3,5-difluoropyridin-2-yl)methoxy]-2′-[2-(2-hydroxypropan-2-yl)pyrimidin-4-yl]-6-methyl-[1,4′-bipyridin]-2-one] | 15.8 µM | 0.126 µM | 
19 | Cc1cnc(-c2nc(C(C)(C)O)n(C)n2)cc1-n1c(C)cc(OCc2ncc(F)cc2F)c(Cl)c1=O (single isomer, unassigned) [Example 42A, rel-3-chloro-4-[(3,5-difluoropyridin-2-yl)methoxy]-2′-[5-(2-hydroxypropan-2-yl)-1-methyl-1,2,4-triazol-3-yl]-5′,6-dimethyl-[1,4′-bipyridin]-2-one] | 6.31 µM | 0.501 µM | 
20 | Cc1sc(-c2ccnc(C(C)(C)O)n2)cc1-n1c(C)cc(OCc2ncc(F)cc2F)c(Cl)c1=O (single isomer, unassigned) [Example 33A, 3-chloro-4-[(3,5-difluoropyridin-2-yl)methoxy]-1-{5-[2-(2-hydroxypropan-2-yl)pyrimidin-4-yl]-2-methylthiophen-3-yl}-6-methylpyridin-2-one] | 5.01 µM | 0.0251 µM | 
21 | Cc1cnc(-c2ccnc([C@@](C)(O)C3CC3)n2)cc1-n1c(C)cc(OCc2ncc(F)cc2F)c(Cl)c1=O (racemic) [Example 6, 3-chloro-2′-[2-(1-cyclopropyl-1-hydroxyethyl)pyrimidin-4-yl]-4-[(3,5-difluoropyridin-2-yl)methoxy]-5′,6-dimethyl-[1,4′-bipyridin]-2-one] | 12.6 µM |  | p38a/MK2 (10 μM) Enzyme pIC50 ([2]; top dose 10 μM): 7.5
